Consider 67 molecules from the RepoRT retention time repository.

A short description of this data set: RP, Restek Raptor Biphenyl, 100 × 2.1 mm, 2.7 µm, 50 °C, 0.4 mL/min, estimated dead time 0.55 min; A: water + 0.1% formic acid, pH 3; B: methanol + 0.1% formic acid, pH 3; gradient (min/%B) 0/5 1.12/5 6.41/99.5 10.01/99.5. As to conditions: stereoisomer not certain.

Structures are written as SMILES.

For the molecule `CC(=O)NCCc1c[nH]c2ccc(O)cc12` [N-ACETYLSEROTONIN], the LC retention time is 3.58 min.

As to `O=C(O)C(O)c1cccc(O)c1` (configuration not stated) [3-Hydroxymandelic acid], the LC retention time is 1.52 min.

In the case of `COc1cc(CC(=O)O)ccc1O` [HOMOVANILLATE], the LC retention time was 2.46 min.

Regarding `CCCCCCCCCCCCCCCCC(=O)O` [Heptadecanoic acid], the LC retention time is 6.6 min.

In the case of `CCCCCCCCCC(O)CC(=O)OC(CC(=O)[O-])C[N+](C)(C)C` [[(3R)-3-Hydroxydodecanoyl]-L-carnitine], the LC retention time was 5.15 min.

For the molecule `CCCCCCCCCCCCCCCCCC(=O)OC(CC(=O)[O-])C[N+](C)(C)C` [Stearoyl-L-carnitine], the LC retention time was 6.13 min.

On to `O=C(O)CC(CC(=O)O)C(=O)O` [Tricarballylic acid], for which the LC retention time is 0.842 min.

As for `CCCCCCCCCC[n+]1cccc(S(=O)(=O)[O-])c1` [C10-APS], the LC retention time is 5.39 min.

Turning to `OC(c1ccc(Cl)cc1)(c1cncnc1)c1ccccc1Cl` (configuration not stated) [Fenarimol], the LC retention time is 6.02 min.

With `Nc1nc2ncc(CNc3ccc(C(=O)NC(CCC(=O)O)C(=O)O)cc3)nc2c(=O)[nH]1` (configuration not stated) [FOLATE], the LC retention time was 3.67 min.

With `CCCCCCCCCCCCCCCCCC[n+]1cccc(S(=O)(=O)[O-])c1` [C18-APS], the LC retention time is 6.52 min.

Turning to `O=C(O)Cc1c[nH]c2ccccc12` [3-Indoleacetic acid], the LC retention time is 4.19 min.

Take `O=Cc1ccccc1` [BENZALDEHYDE]: the LC retention time was 2.98 min.

On to `O=C(O)Cc1ccccc1` [PHENYLACETATE], for which the LC retention time is 2.46 min.

For the molecule `CC(C(=O)O)C(=O)O` [Methylmalonic acid], the LC retention time is 0.96 min.

For `O=C1CCCCO1` [5-VALEROLACTONE], the LC retention time was 2.44 min.

For the molecule `CCCCCCCCCCCCC[n+]1cccc(S(=O)(=O)[O-])c1` [C13-APS], the LC retention time is 5.95 min.

With `CC(=O)OCC(=O)C1(O)CCC2C3CCC4=CC(=O)CCC4(C)C3C(O)CC21C` (configuration not stated) [CORTISOL 21-ACETATE], the LC retention time was 5.88 min.

In the case of `Cc1ccn2nc(S(=O)(=O)Nc3c(F)cccc3F)nc2n1` [Flumetsulam], the LC retention time was 4.92 min.

As for `O=C(O)CCCC(=O)C(=O)O` [2-Oxoadipic acid], the LC retention time is 0.793 min.

Regarding `O=C(O)c1ccc[nH]1` [PYRROLE-2-CARBOXYLATE], the LC retention time is 3.3 min.

Consider `CC(C)(C)N(NC(=O)c1ccc(Cl)cc1)C(=O)c1ccccc1` [Halofenozide], for which the LC retention time is 5.6 min.

Consider `O=C(O)CNC(=O)c1ccccc1` [HIPPURATE], for which the LC retention time was 3.44 min.

`O=C(O)CCCC(O)C(=O)O` (racemic) [Disodium (2RS)-2-hydroxyadipate]: the LC retention time is 1.03 min.

Take `CCCCCCCCCCCCCCCCCCCC[n+]1cccc(S(=O)(=O)[O-])c1` [C20-APS]: the LC retention time was 6.67 min.

For `C#CC(C)(C)NC(=O)c1cc(Cl)cc(Cl)c1` [Propyzamide], the LC retention time was 5.6 min.

For `CCCCCCCCCCCCCCCCCCCCCCCCC(=O)O` [Pentacosanoic Acid], the LC retention time was 6.98 min.

For `CCC(Oc1ccc(F)c(C(F)(F)F)c1)C(=O)NCc1ccccc1` (configuration not stated) [Beflubutamid], the LC retention time was 5.9 min.

`O=C(O)c1ccc(O)cc1` [4-HYDROXYBENZOATE]: the LC retention time was 0.822 min.

`CC(=O)N[C@@H](CC(=O)O)C(=O)O` [N-Acetyl-L-aspartic acid]: the LC retention time is 0.77 min.

Regarding `COC(=O)c1ccc(CNS(C)(=O)=O)cc1S(=O)(=O)NC(=O)Nc1nc(OC)cc(OC)n1` [Mesosulfuron-methyl], the LC retention time was 6.04 min.

Take `O=C(Nc1ccccc1)Nc1ccnc(Cl)c1` [Forchlorfenuron]: the LC retention time is 5.17 min.

Consider `CCCCCCCCCCCCCCCCCCCCCC(=O)O` [Behenic acid], for which the LC retention time is 6.86 min.

With `CCCCCCC[n+]1cccc(S(=O)(=O)[O-])c1` [C7-APS], the LC retention time was 4.41 min.

For the molecule `CCCCCC=CCC=CCC=CCCCCC(=O)O` [γ-Linolenic acid], the LC retention time is 6.54 min.

As for `CCCCCCCCCCCC(=O)OC(CC(=O)[O-])C[N+](C)(C)C` [Lauroyl-L-carnitine], the LC retention time was 5.46 min.

On to `CCC=CCC=CCC=CCCCCCCCC(=O)O` [Linolenic acid], for which the LC retention time was 6.53 min.

Turning to `CC12CCC(=O)C=C1CCC1C2C(O)CC2(C)C(C(=O)CO)CCC12` (configuration not stated) [Corticosterone], the LC retention time was 6.21 min.

For `CCc1ccc(C(=O)NN(C(=O)c2cc(C)cc(C)c2)C(C)(C)C)cc1` [Tebufenozide], the LC retention time was 6.04 min.

On to `O=c1cc[nH]c(=O)[nH]1` [URACIL], for which the LC retention time is 0.702 min.

With `CCCCCCCCCCCCCCCCC[n+]1cccc(S(=O)(=O)[O-])c1` [C17-APS], the LC retention time was 6.44 min.

For the molecule `CC(CCC(=O)O)C1CCC2C3C(=O)CC4CC(O)CCC4(C)C3CCC12C` (configuration not stated) [Nutriacholic Acid], the LC retention time is 6.42 min.

For `CC(C)=CC(=O)NCC(=O)O` [3-Methylcrotonyl Glycine], the LC retention time was 2.95 min.

As to `O=c1[nH]c(=O)c2ncn(C3OC(COP(=O)(O)O)C(O)C3O)c2[nH]1` (configuration not stated) [XANTHOSINE-MONOPHOSPHATE], the LC retention time was 0.695 min.

On to `CC(C)CCCC(C)CCCC(C)CCCC(C)CC(=O)O` (configuration not stated) [Phytanic acid], for which the LC retention time is 6.68 min.

`CCC(C)CCCCCCCCCCCCC(=O)O` (configuration not stated) [14-Methylhexadecanoic acid]: the LC retention time is 6.58 min.

Turning to `O=C(O)CCc1ccc(O)cc1` [3-(4-Hydroxyphenyl)propionic acid], the LC retention time was 3.65 min.

With `Nc1nc2c(ncn2C2OC(CO)C(O)C2O)c(=O)[nH]1` (configuration not stated) [GUANOSINE], the LC retention time is 1.15 min.

Regarding `CC(C)(CC(=O)O)CC(=O)O` [3,3-Dimethylglutaric acid], the LC retention time is 3.16 min.

In the case of `Nc1nc2c(ncn2C2CC(O)C(COP(=O)(O)OP(=O)(O)O)O2)c(=O)[nH]1` (configuration not stated) [DGDP], the LC retention time was 0.695 min.

As for `COC(=O)c1c(Cl)nn(C)c1S(=O)(=O)NC(=O)Nc1nc(OC)cc(OC)n1` [Halosulfuron-methyl], the LC retention time was 6.42 min.

Turning to `O=C(Nc1ccc(F)cc1F)c1cccnc1Oc1cccc(C(F)(F)F)c1` [Diflufenican], the LC retention time was 6.33 min.

For the molecule `CSc1ncnc2nc[nH]c12` [THIOPURINE S-METHYLETHER], the LC retention time is 3.77 min.

In the case of `O=C(O)C(O)Cc1c[nH]c2ccccc12` (racemic) [DL-Indole-3-lactic acid], the LC retention time was 3.91 min.

Turning to `CCN(Cc1ccc(Cl)nc1)C(=C[N+](=O)[O-])NC` [Nitenpyram], the LC retention time was 3.63 min.

`O=C(O)CCCc1c[nH]c2ccccc12` [Indole-3-butyric acid]: the LC retention time was 4.97 min.

Consider `CCC[n+]1cccc(S(=O)(=O)[O-])c1` [C3-APS], for which the LC retention time is 1.67 min.

Regarding `CC1(c2ccc(Oc3ccccc3)cc2)OC(=O)N(Nc2ccccc2)C1=O` (configuration not stated) [Famoxadone], the LC retention time was 6.68 min.

For the molecule `O=C(O)C(O)c1ccccc1` (configuration not stated) [MANDELATE], the LC retention time was 2.98 min.

For the molecule `CC(C)CCCCCCCCCCCCCC(=O)O` [15-Methylpalmitic acid], the LC retention time is 6.58 min.

For the molecule `O=C(O)CCCCC(O)CC(=O)O` (configuration not stated) [3-Hydroxysuberic Acid], the LC retention time is 2.74 min.

Take `c1ncc2[nH]cnc2n1` [PURINE]: the LC retention time is 1.29 min.

On to `Cc1cn(C2CC(O)C(COP(=O)(O)O)O2)c(=O)[nH]c1=O` (configuration not stated) [THYMIDINE-MONOPHOSPHATE], for which the LC retention time was 0.837 min.

On to `C[C@H](CCC(=O)O)[C@H]1CC[C@H]2[C@@H]3[C@H](O)C[C@@H]4C[C@H](O)CC[C@]4(C)[C@H]3CC(=O)[C@]12C` [(3ALPHA,5BETA,7ALPHA)-3,7-DIHYDROXY-12-OXOCHOLAN-24-OIC ACID], for which the LC retention time was 6.07 min.

With `CCCCCC=CCC=CCC=CCC=CCC=CCCC(=O)O` [all-cis-4,7,10,13,16-Docosapentaenoic acid], the LC retention time is 6.7 min.

With `O=C(O)CC(O)(CC(=O)O)C(=O)O` [Citric acid], the LC retention time is 0.743 min.

Regarding `Cc1ncc(CO)c(C(=O)O)c1O` [4-PYRIDOXATE], the LC retention time is 1.8 min.
